Test results from ChEMBL document CHEMBL1201862, “PubChem BioAssay data set” (2004).
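Results reflect a 48-hour exposure of cells in 96-well plates to compound at five concentrations. GI50 marks 50% less growth.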 Active and inactive are the calls of the source. Cut-off read from the data, not from the text of the source: active = GI50 up to about 1.1 µM and inactive = higher.

Assays:
Experiment in all cases: NCI-60 cell line screen, 48 h
786-0 = test system: 786-0
A549 = test system: A549
CAKI-1 = test system: CAKI-1
COLO 205 = test system: COLO 205
DU-145 = test system: DU-145
EKVX = test system: EKVX
HCC 2998 = test system: HCC 2998
LOX IMVI = test system: LOX IMVI
M14 = test system: M14
MCF7 = test system: MCF7
MDA-MB-435 = test system: MDA-MB-435
NCI-H226 = test system: NCI-H226
NCI-H522 = test system: NCI-H522
OVCAR-5 = test system: OVCAR-5
SF-295 = test system: SF-295
SK-OV-3 = test system: SK-OV-3
SN12C = test system: SN12C
SNB-19 = test system: SNB-19
SW-620 = test system: SW-620
UACC-257 = test system: UACC-257

Which results are given for `CN(C)C1=Nc2ccccc2C(=S)N2CSCC12` (stereo not given)?
GI50 (786-0): 25.9 µM (inactive); GI50 (A549): > 100 µM (inactive); GI50 (CAKI-1): 20.9 µM (inactive); GI50 (COLO 205): 22.3 µM (inactive); GI50 (DU-145): > 100 µM (inactive); GI50 (EKVX): 41.1 µM (inactive); GI50 (HCC 2998): > 100 µM (inactive); GI50 (LOX IMVI): 43.3 µM (inactive); GI50 (M14): 66.2 µM (inactive); GI50 (MCF7): 47.3 µM (inactive); GI50 (MDA-MB-435): > 100 µM (inactive); GI50 (NCI-H226): > 100 µM (inactive); GI50 (NCI-H522): 14.6 µM (inactive); GI50 (OVCAR-5): > 100 µM (inactive); GI50 (SF-295): > 100 µM (inactive); GI50 (SK-OV-3): > 100 µM (inactive); GI50 (SN12C): 84.5 µM (inactive); GI50 (SNB-19): > 100 µM (inactive); GI50 (SW-620): 34.8 µM (inactive); GI50 (UACC-257): > 100 µM (inactive)

Which GI50 (786-0) does the source give for `CC(C)CC1NC(=O)C(C(C)C)NC(=O)CC(C)COC(=O)C(CC(C)C)N(C)C(=O)C(C(C)C)NC(=O)C(C(C)C)OC1=O` (stereo not given) here?
The GI50 was 31.3 µM (inactive).

What about the GI50 (A549) of the same compound?
Its GI50 is > 50 µM (inactive).

What about the GI50 (CAKI-1) of the same compound?
Its GI50 is 48.9 µM (inactive).

And the GI50 (COLO 205)?
The GI50 was > 50 µM (inactive).

What about the GI50 (DU-145) of the same compound?
The GI50 was > 50 µM (inactive).

What about the GI50 (EKVX) of the same compound?
Its GI50 is > 50 µM (inactive).

What about the GI50 (HCC 2998) of the same compound?
The GI50 was > 50 µM (inactive).

What about the GI50 (LOX IMVI) of the same compound?
The GI50 was 23.5 µM (inactive).

What about the GI50 (M14) of the same compound?
The GI50 was 38.5 µM (inactive).

What about the GI50 (MCF7) of the same compound?
The GI50 was > 50 µM (inactive).

And the GI50 (MDA-MB-435)?
The GI50 was > 50 µM (inactive).

And the GI50 (NCI-H226)?
The GI50 was 13 µM (inactive).

And the GI50 (NCI-H522)?
The GI50 was > 50 µM (inactive).

And the GI50 (OVCAR-5)?
The GI50 was 37.7 µM (inactive).

And the GI50 (SF-295)?
The GI50 was 38.4 µM (inactive).

And the GI50 (SK-OV-3)?
Its GI50 is 29.1 µM (inactive).

What about the GI50 (SN12C) of the same compound?
The GI50 was > 50 µM (inactive).

What about the GI50 (SNB-19) of the same compound?
Its GI50 is 17.1 µM (inactive).

What about the GI50 (SW-620) of the same compound?
The GI50 was > 50 µM (inactive).

What about the GI50 (UACC-257) of the same compound?
Its GI50 is > 50 µM (inactive).

Which results are given for `O=C1C=C(c2c(O)ccc3ccccc23)c2ccccc2C1=O`?
GI50 (786-0): 2.15 µM (inactive); GI50 (A549): 5.86 µM (inactive); GI50 (CAKI-1): 7.93 µM (inactive); GI50 (COLO 205): 6.76 µM (inactive); GI50 (DU-145): 10.9 µM (inactive); GI50 (EKVX): 3.15 µM (inactive); GI50 (HCC 2998): 11.7 µM (inactive); GI50 (LOX IMVI): 1.77 µM (inactive); GI50 (M14): 4.69 µM (inactive); GI50 (MCF7): < 0.01 µM (active); GI50 (MDA-MB-435): 3.01 µM (inactive); GI50 (NCI-H226): 9.77 µM (inactive); GI50 (NCI-H522): 1.61 µM (inactive); GI50 (OVCAR-5): 10.7 µM (inactive); GI50 (SF-295): 4.19 µM (inactive); GI50 (SK-OV-3): 10.7 µM (inactive); GI50 (SN12C): 2.58 µM (inactive); GI50 (SNB-19): 5.96 µM (inactive); GI50 (SW-620): 2.09 µM (inactive); GI50 (UACC-257): 2.39 µM (inactive)

Which GI50 (786-0) does the source give for `CCn1c2ccc(C(=O)CCCN(C)C)cc2c2cc(C(=O)CCCN(C)C)ccc21` here?
The GI50 was 0.243 µM (active).

And the GI50 (A549)?
The GI50 was 0.867 µM (active).

What about the GI50 (CAKI-1) of the same compound?
Its GI50 is 2.55 µM (inactive).

And the GI50 (COLO 205)?
Its GI50 is 1.06 µM (active).

What about the GI50 (DU-145) of the same compound?
Its GI50 is 2.52 µM (inactive).

What about the GI50 (EKVX) of the same compound?
Its GI50 is 1.79 µM (inactive).

And the GI50 (HCC 2998)?
Its GI50 is 1.69 µM (inactive).

And the GI50 (LOX IMVI)?
The GI50 was 1.12 µM (active).

And the GI50 (M14)?
The GI50 was 1.95 µM (inactive).

What about the GI50 (MCF7) of the same compound?
The GI50 was 0.659 µM (active).

And the GI50 (MDA-MB-435)?
The GI50 was 1.27 µM (inactive).

What about the GI50 (NCI-H226) of the same compound?
The GI50 was 2.74 µM (inactive).

What about the GI50 (NCI-H522) of the same compound?
The GI50 was 3.04 µM (inactive).

And the GI50 (OVCAR-5)?
Its GI50 is 1.79 µM (inactive).

And the GI50 (SF-295)?
The GI50 was 3.64 µM (inactive).

What about the GI50 (SK-OV-3) of the same compound?
The GI50 was 5.79 µM (inactive).

And the GI50 (SN12C)?
Its GI50 is 0.946 µM (active).

What about the GI50 (SNB-19) of the same compound?
Its GI50 is 1.6 µM (inactive).

What about the GI50 (SW-620) of the same compound?
Its GI50 is 0.53 µM (active).

And the GI50 (UACC-257)?
The GI50 was 3.44 µM (inactive).
